The subject of one experiment is Colo205 cells. The experiment can be described thus: Cell-based proliferation assay (cyquant), Colo205.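 Also: Colo205 human colon cancer cells exposed to compounds over a concentration range for 96 h, growth read by CyQUANT proliferation assay, GI50 taken from fitted dose-response curves.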 The following applies: Homo sapiens, 96 h treatment.
In the next experiment the test system is MDA-MB435 cells. The experiment can be described thus: Cell-based proliferation assay (cyquant), MDA-MB435. Conditions: Homo sapiens, MDA-MB-435; 96 h treatment. On the procedure: Cell-Based Proliferation Assay for Determination of GI50 Values
Human colon cancer cell lines (Colo205 and HCT116), human breast cancer cell lines (MDA-MB435 and MDA-MB231), and human lung cancer cell line (A549) were obtained from ATCC. Colo205 cells were cultivated in RPMI 1640 containing 2 mM L-Glutamine, 5% FBS, 1.0 mM Na Pyruvate. A549 and MDA-MB231 were cultivated in RPMI 1640 containing 2 mM L-glutamine, 5% FBS. MDA-MB435 cells were cultivated in DMEM containing 2 mM L-Glutamine, 5% FBS. HCT116 cells were cultivated in IMEM containing 2 mM L-Glutamine, 5% FBS. A549 and Colo205 cells were seeded in 96-wells plate at 2000 and 5000 cells per well respectively. MDA-MB435, HCT116, MDA-MB231 cells were seeded in 96-wells plate at 6000 cells per well. The plates were incubated at 37° C., 5% CO2, for 24 h. Cells were treated with compounds at various concentration for 96 h. Cell growth was then monitored using cyquant cell proliferation assay (Invitrogen Pte Ltd). Dose response curves were plotted to determine GI50 values for the compounds using XL-fit.

Experiment [1] deals with HDAC8 enzyme (recombinant GST-HDAC8) (Homo sapiens (Human), UniProt Q9BY41). Briefly: In vitro HDAC assay (BIOMOL fluorescent-based), HDAC8 enzyme. The experiment is classed as biochemical.
Procedure: (§1) Expression of GST-HDAC1 or HTGST-HDAC8 was done by infecting SF9 cells (Invitrogen Pte Ltd) with pDEST20-HDAC1 or pFASTBAC-GST-HDAC8 baculovirus at MOI=1 for 48 h. Soluble cell lysate was incubated with pre-equilibrated Glutathione Sepharose 4B beads (Amersham) at 4° C. for 2 h. The beads were washed with PBS buffer for 3 times. The GST-HDAC1 protein or GST-HDAC8 protein was eluted by elution buffer containing 50 mM Tris, pH8.0, 150 mM NaCl, 1% Triton X-100 and 10 mM or 20 mM reduced Glutathione. The purified GST-HDAC1 protein or purified GST-HDAC8 protein was dialyzed with HDAC storage buffer containing 10 mM Tris, pH7.5, 100 mM NaCl and 3 mM MgCl2. 20% Glycerol was added to purified GST-HDAC1 protein or purified GST-HDAC8 before storage at −80° C.
For experiment [2], the target named is HDAC1 enzyme (recombinant GST-HDAC1) (Homo sapiens (Human), UniProt Q13547). Briefly: In vitro HDAC assay (BIOMOL fluorescent-based), HDAC1 enzyme. The experiment is classed as biochemical.
Procedure: as §1
Another experiment addresses HDAC3 (Homo sapiens (Human), UniProt O15379). The experiment can be described thus: In vitro HDAC assay, HDAC3. In kind it is biochemical. The following applies: Free base. As for the experimental part:
In Vitro HDAC Assay for Determination of IC50 Values
The assay has been carried out in 96 well format and the BIOMOL fluorescent-based HDAC activity assay has been applied. […] Flur de lys Developer was added and the reaction was incubated for 10 min. Briefly, deacetylation of the substrate sensitizes it to the developer, which then generates a fluorophore (symbol). The fluorophore is excited with 360 nm light and the emitted light (460 nm) is detected on a fluorometric plate reader (Tecan Ultra Microplate detection system, Tecan Group Ltd.).
The analytical software, Prism 3.0 has been used to generate IC50 from a series of data.

The structures appear in SMILES notation.

Sequence of HDAC1 enzyme (recombinant GST-HDAC1) (Q13547 whole entry): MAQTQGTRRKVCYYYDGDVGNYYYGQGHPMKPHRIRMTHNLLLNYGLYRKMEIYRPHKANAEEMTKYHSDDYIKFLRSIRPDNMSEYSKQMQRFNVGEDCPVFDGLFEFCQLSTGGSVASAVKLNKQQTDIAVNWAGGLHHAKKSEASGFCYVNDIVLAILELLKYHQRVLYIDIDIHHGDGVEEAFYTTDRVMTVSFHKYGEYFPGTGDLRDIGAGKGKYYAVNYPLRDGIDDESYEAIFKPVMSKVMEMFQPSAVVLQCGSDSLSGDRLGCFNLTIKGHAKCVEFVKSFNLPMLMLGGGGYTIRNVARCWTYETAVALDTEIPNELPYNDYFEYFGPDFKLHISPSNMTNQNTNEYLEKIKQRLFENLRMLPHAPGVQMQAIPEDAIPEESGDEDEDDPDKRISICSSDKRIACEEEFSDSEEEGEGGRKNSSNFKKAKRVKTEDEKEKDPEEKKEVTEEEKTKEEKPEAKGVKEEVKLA
Sequence of HDAC8 enzyme (recombinant GST-HDAC8) (Q9BY41 whole entry): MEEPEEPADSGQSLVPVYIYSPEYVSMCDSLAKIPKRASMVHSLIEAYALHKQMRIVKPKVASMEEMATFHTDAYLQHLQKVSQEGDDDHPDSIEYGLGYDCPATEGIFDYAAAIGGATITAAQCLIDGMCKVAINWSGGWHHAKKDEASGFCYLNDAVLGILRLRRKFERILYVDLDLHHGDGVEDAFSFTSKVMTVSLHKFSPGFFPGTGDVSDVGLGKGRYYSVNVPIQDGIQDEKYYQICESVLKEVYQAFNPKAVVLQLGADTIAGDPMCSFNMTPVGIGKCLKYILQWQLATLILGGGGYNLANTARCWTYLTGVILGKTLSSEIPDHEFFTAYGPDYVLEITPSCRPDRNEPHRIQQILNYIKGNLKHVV
Sequence of HDAC3 (O15379 whole entry): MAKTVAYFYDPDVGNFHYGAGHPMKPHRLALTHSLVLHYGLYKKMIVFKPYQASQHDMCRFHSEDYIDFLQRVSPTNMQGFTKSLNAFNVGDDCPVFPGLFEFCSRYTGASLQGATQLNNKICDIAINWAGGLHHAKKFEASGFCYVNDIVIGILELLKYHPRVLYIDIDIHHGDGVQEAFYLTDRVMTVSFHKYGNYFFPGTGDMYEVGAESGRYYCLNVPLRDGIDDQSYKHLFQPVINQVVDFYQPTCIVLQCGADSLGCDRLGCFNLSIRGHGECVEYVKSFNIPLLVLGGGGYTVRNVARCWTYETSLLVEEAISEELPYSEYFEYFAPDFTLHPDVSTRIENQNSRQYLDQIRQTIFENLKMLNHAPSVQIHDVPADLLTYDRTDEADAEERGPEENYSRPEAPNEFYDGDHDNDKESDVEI
Procedure for Colo205 cells: A549 and Colo205 cells were seeded in 96-wells plate at 2000 and 5000 cells per well respectively. […] The plates were incubated at 37° C., 5% CO2, for 24 h. Cells were treated with compounds at various concentration for 96 h. Cell growth was then monitored using cyquant cell proliferation assay (Invitrogen Pte Ltd). Dose response curves were plotted to determine GI50 values for the compounds using XL-fit.

For `COc1ccc(-c2nc3cc(/C=C/C(=O)NO)ccc3n2CC(O)CO)cc1` (stereo not shown) [Compound 6, N-Hydroxy-3-[1-(2,3-hydroxy-propyl)-2-(4-methoxy-phenyl)-1H-benzimidazole-5-yl]-acrylamide], the GI50 (commonly the concentration that inhibits growth by half) in the experiment with Colo205 cells (COLO 205) is greater than 100 µM.
In the experiment on Colo205 cells (COLO 205), `COc1cc(-c2nc3cc(/C=C/C(=O)NO)ccc3n2CC(O)CO)ccc1OCc1ccccc1` (stereo not shown) [Compound 7, N-Hydroxy-3-[2-(4-benzyloxy-3-methoxy-phenyl)-1-(2,3-hydroxy-propyl)-1H-benzimidazole-5-yl]-acrylamide] had a GI50 greater than 100 µM.
Take `O=C(/C=C/c1ccc2c(c1)nc(CCc1ccccc1)n2CC(O)CO)NO` (stereo not shown) [Compound 8]: the GI50 with Colo205 cells (COLO 205) stood at 41.4 µM; with MDA-MB435 cells, 58.4 µM.
As to `O=C(/C=C/c1ccc2c(c1)nc(-c1ccccn1)n2CC(O)CO)NO` (stereo not shown) [Compound 9, N-Hydroxy-3-[1-(2,3-hydroxy-propyl)-2-(2-pyridyl)-1H-benzimidazol-5-yl]-acrylamide], the GI50 with Colo205 cells (COLO 205) and in the experiment on MDA-MB435 cells was greater than 100 µM each time.
Take `O=C(/C=C/c1ccc2c(c1)nc(-c1ccccn1)n2CCCO)NO` [Compound 13, N-Hydroxy-3-[1-(3-hydroxy-propyl)-2-(2-pyridyl)-1H-benzimidazol-5-yl]-acrylamide]: the GI50 with Colo205 cells (COLO 205) is 12.3 µM; with MDA-MB435 cells, 14.1 µM.
On the same counts, the results for `COCCCn1c(CCc2ccccc2)nc2cc(/C=C/C(=O)NO)ccc21` [Compound 15] are 1.99 µM and 4.07 µM.
For `O=C(/C=C/c1ccc2c(c1)nc(CCc1ccccc1)n2Cc1ccccn1)NO` [Compound 16, N-Hydroxy-3-(2-phenethyl-1-(pyridin-2-yl)methyl-1H-benzimidazol-5-yl)-acrylamide], the GI50 in the experiment on Colo205 cells (COLO 205) turned out to be 0.94 µM; in the experiment on MDA-MB435 cells it was 0.98 µM.
For `O=C(/C=C/c1ccc2c(c1)nc(CCc1ccccc1)n2CCc1ccccn1)NO` [Compound 18] the same measures were 4.69 µM and 6.16 µM.
On the same counts, the results for `O=C(/C=C/c1ccc2c(c1)nc(COCc1ccccc1)n2CCCO)NO` [Compound 19] are 4.1 µM and 3.97 µM.
In the case of `CC(C)Cc1nc2cc(/C=C/C(=O)NO)ccc2n1CCc1ccccn1` [Compound 22], the GI50 in the experiment on Colo205 cells (COLO 205) amounted to 13.5 µM; with MDA-MB435 cells, 13.3 µM.
For `O=C(/C=C/c1ccc2c(c1)nc(C1CCCCC1)n2CCCO)NO` [Compound 24, N-Hydroxy-[2-cyclohexyl-1-(3-hydroxy-propyl)-1H-benzimidazol-5-yl]-acrylamide] the same measures were 30.7 µM and 35 µM.
As to `CC(C)Cc1nc2cc(/C=C/C(=O)NO)ccc2n1CCc1ccccc1` [Compound 25, N-Hydroxy-3-(2-isobutyl-1-phenethyl-1H-benzimidazol-5-yl]-acrylamide], the GI50 turned out to be 8.1 µM with Colo205 cells (COLO 205) and 6.82 µM in the experiment on MDA-MB435 cells.
On the same counts, the results for `O=C(/C=C/c1ccc2c(c1)nc(COCc1ccccc1)n2CCc1cccnc1)NO` [Compound 28] are 2.53 µM and 5.15 µM.
`O=C(/C=C/c1ccc2c(c1)nc(CCc1ccccc1)n2CCCN1CCOCC1)NO` [Compound 31, N-Hydroxy-3-[1-(3-morpholin-4-propyl]-2-phenethyl-1H-benzimidazol-5-yl}-acrylamide]: the concentration for 50% growth inhibition (GI50) came out at 1.87 µM in the experiment on Colo205 cells (COLO 205) and 4.06 µM in the experiment on MDA-MB435 cells.
As to `O=C(O)CCn1c(CCc2ccccc2)nc2cc(/C=C/C(=O)NO)ccc21` [Compound 32, 3-[5-(2-Hydrocarbamoyl-vinyl)-2-phenethyl-benzimidazol-1-yl]-propionic acid], the IC50 (usually the midpoint of a concentration-inhibition curve) in experiment [1] came to 1.89 µM.
On to `CCCn1c(CCc2ccccc2)nc2cc(/C=C/C(=O)NO)ccc21` [Compound 36, N-Hydroxy-3-(2-phenethyl-1-propyl-1H-benzimidazol-5-yl}-acrylamide], for which the 50% growth inhibitory concentration (GI50) in the experiment with Colo205 cells (COLO 205) came to 2.29 µM; with MDA-MB435 cells, 2.17 µM.
On the same counts, the results for `O=C(NO)c1ccc2c(c1)nc(CCc1ccccc1)n2CCCO` [Compound 40, 1-(3-Hydroxy-propyl)-2-phenethyl-1H-benzimidazol-5-carboxylic acid hydroxyamide] are 25.6 µM and 31 µM.
For `CC(Cc1nc2cc(/C=C/C(=O)NO)ccc2n1CCc1cccnc1)c1ccccc1` (stereo not shown) [Compound 41] the same measures were 1.65 µM and 1.91 µM.
Consider `O=C(/C=C/c1ccc2c(c1)nc(CCc1ccccc1)n2CCN1CCOCC1)NO` [Compound 44], for which the IC50 in experiment [2] worked out at 0.268 µM; in experiment [1], 0.345 µM. In addition, the GI50 is 2.82 µM with Colo205 cells (COLO 205) and 3.65 µM with MDA-MB435 cells.
With `COc1cc(Cn2c(CCc3ccccc3)nc3cc(CCC(=O)NO)ccc32)cc(OC)c1OC` [Compound 45], the GI50 in the experiment with Colo205 cells (COLO 205) amounted to 2.41 µM; in the experiment on MDA-MB435 cells it was 1.9 µM.
With `Cc1nc2cc(/C=C/C(=O)NO)ccc2n1C` [Compound 53], the IC50 in experiment [2] stood at 1.85 µM.
Consider `Cn1c(CNC(=O)Cc2ccccc2)nc2cc(/C=C/C(=O)NO)ccc21` [Compound 54], for which the GI50 was 4.47 µM in the experiment on Colo205 cells (COLO 205) and 5.92 µM with MDA-MB435 cells.
As to `Cn1c(CNC(=O)c2ccncc2)nc2cc(/C=C/C(=O)NO)ccc21` [Compound 55], the IC50 in experiment [2] came to 0.137 µM. Further, the GI50 with Colo205 cells (COLO 205) and in the experiment with MDA-MB435 cells was greater than 100 µM in each case.
In the case of `O=C(/C=C/c1ccc2c(c1)nc(CCc1ccccc1)n2CCCn1ccnc1)NO` [Compound 56, N-Hydroxy-3-[1-(3-imidazol-1-yl-propyl)-2-phenethyl-1H-benzimidazol-5-yl]-acrylamide], the GI50 in the experiment on Colo205 cells (COLO 205) and in the experiment with MDA-MB435 cells was greater than 100 µM throughout.
Turning to `O=C(/C=C/c1ccc2nc(CCc3ccccc3)n(Cc3ccccc3)c2c1)NO` [Compound 58], the IC50 in experiment [2] is 1.14 µM.
In the case of `Cn1c(CCc2ccccc2)nc2ccc(/C=C/C(=O)NO)cc21` [Compound 59], the IC50 in experiment [2] was 0.382 µM. Besides, the 50% growth inhibitory concentration (GI50) was 2.72 µM in the experiment on Colo205 cells (COLO 205) and 3.69 µM in the experiment on MDA-MB435 cells.
Take `Cn1c(CN(Cc2ccccc2)Cc2ccccc2)nc2cc(/C=C/C(=O)NO)ccc21` [Compound 61]: the GI50 amounted to 2.69 µM in the experiment with Colo205 cells (COLO 205) and 3.05 µM with MDA-MB435 cells.
`COc1ccc(CNCc2nc3cc(/C=C/C(=O)NO)ccc3n2C)cc1` [Compound 62]: the GI50 came to 11.7 µM with Colo205 cells (COLO 205) and 19.8 µM with MDA-MB435 cells.
In turn, `CCn1c(CNCc2ccccc2)nc2cc(/C=C/C(=O)NO)ccc21` [Compound 64, N-Hydroxy-3-[2-(benzylamino-methyl)-ethyl-1H-benzimidazol-5-yl]-acrylamide] returned a concentration for 50% growth inhibition (GI50) in the experiment with Colo205 cells (COLO 205) of 1.7 µM.
In turn, `O=C(/C=C/c1ccc2c(c1)nc(CCc1ccccc1)n2CCN1CCCCC1)NO` [Compound 67, N-Hydroxy-3-[2-phenethyl-1-(piperidin-1-yl-ethyl)-1H-benzimidazol-5-yl]-acrylamide] yielded an IC50 against HDAC3 of 0.056 µM.
Turning to `CCn1c(CN(Cc2ccccc2)Cc2ccccc2)nc2cc(/C=C/C(=O)NO)ccc21` [Compound 68], in the experiment with Colo205 cells (COLO 205), it took 0.73 µM to inhibit growth by half (GI50).
The same measure, in the same setting: next, `Cn1c(CNC(=O)Cc2ccc(F)cc2)nc2cc(/C=C/C(=O)NO)ccc21` [Compound 69]: 7.16 µM; `CCn1c(CCNC(=O)Cc2ccccc2)nc2cc(/C=C/C(=O)NO)ccc21` [Compound 70]: 2.9 µM; `CCn1c(CCNS(=O)(=O)c2ccccc2)nc2cc(/C=C/C(=O)NO)ccc21` [Compound 71]: 7.09 µM.
On the same count and under the same terms, next, `O=C(/C=C/c1ccc2c(c1)nc(CCc1ccccc1)n2CCN1CCCC1)NO` [Compound 72, N-Hydroxy-3-[2-phenyethyl-1-(2-pyrrolidin-1-yl-ethyl)-1H-benzimidazol-5-yl]-acrylamide]: 0.18 µM; `CCn1c(CCNC(=O)COc2ccccc2)nc2cc(/C=C/C(=O)NO)ccc21` [Compound 73]: 6.67 µM.
`CC(C)(C)Cn1c(CCc2ccccc2)nc2cc(/C=C/C(=O)NO)ccc21` [Compound 75]: in experiment [2], the IC50 was determined as 0.29 µM. The GI50 in the experiment with Colo205 cells (COLO 205) is 2.88 µM.
Consider `CN(C)CC(C)(C)Cn1c(CCCc2ccccc2)nc2cc(/C=C/C(=O)NO)ccc21` [Compound 83], for which, in the experiment on Colo205 cells (COLO 205), halving of growth (GI50) required 0.25 µM.
The same measure, in the same setting: next, `CN(C)CC(C)(C)Cn1c(CCc2ccc(F)cc2)nc2cc(/C=C/C(=O)NO)ccc21` [Compound 84]: 0.17 µM.
With `O=C(/C=C/c1ccc2[nH]c(CCc3ccc(F)cc3)nc2c1)NO` [Compound 85], in the experiment with Colo205 cells (COLO 205), growth was halved (GI50) at 1.65 µM.
The same measure, in the same setting: then `O=C(/C=C/c1ccc2[nH]c(CCc3cccnc3)nc2c1)NO` [Compound 87], with 47.7 µM.
Consider `CN(C)CC(C)(C)Cn1c(SCc2ccccc2)nc2cc(/C=C/C(=O)NO)ccc21` [Compound 89, N-Hydroxy-3-[2-benzylsulfanyl-1-(3-dimethylamino-2-2,dimethyl-propyl)-1H-benzimidazol-5-yl]-acrylamide], for which it took 0.12 µM to inhibit growth in the experiment with Colo205 cells (COLO 205, 96 h) by half (GI50).

For the origin of these results see patent publication US10201527B2, “Benzimidazole derivatives: preparation and pharmaceutical applications” (MEI PHARMA, INC., priority 2003, dated 2019).
